According to patent US11696913B2, “Prolonged ectoparasite-controlling agent for animal” (MITSUI CHEMICALS AGRO, INC., priority 2017, dated 2023):
Read-outs that look alike come from different tables or passages of the source.

Legend:
Ctenocephalides felis [1] = assay: Ctenocephalides felis in-vitro feeding test with fleas (CTECFE oral); conditions: 48 hours, read-out: insecticidal feeding activity; for pest or weed control at 4 ppm: dose 4 ppm in citrated cattle blood; for pest or weed control at 0.16 ppm: dose 0.16 ppm in citrated cattle blood; for pest or weed control at 0.8 ppm: dose 0.8 ppm in citrated cattle blood; for pest or weed control at 0.032 ppm: dose 0.032 ppm in citrated cattle blood
Procedure, shortened: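 Scored as percent fleas killed (0–100%) 48 hours after feeding began. Compound, dissolved in DMSO and diluted into citrated cattle blood, was offered via a parafilm membrane to roughly 20 adult male and female C. felis at about 37° C.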

Spodoptera litura = assay: Insecticidal testing against common cutworm; format: in vivo; conditions: foliar, 144 h, concentration 100 ppm, cabbage leaf dip, second-stage larvae, after 6 days, read-out: pesticidal rate
Description: Insecticidal Testing Against Common Cutworm (Spodoptera litura)

Plutella xylostella = assay: Insecticidal testing against diamondback moth; format: in vivo; conditions: foliar, 144 h, concentration 100 ppm, cabbage leaf dip, third-stage larvae, after 6 days, read-out: pesticidal rate
Description: Insecticidal Testing Against Diamondback Moth (Plutella xylostella)

Ctenocephalides felis [2] = assay: Systemic treatment in-vivo test with cat flea on rats; conditions: intraperitoneal injection, 5 mg/kg; for inhibition in vivo at 5 mg/kg: Ctenocephalides felis, ip
Experimental: Systemic Treatment In-Vivo Test with American Dog Tick Nymph and Cat Flea on Rats
Type of study and overall study design: The method is a randomized non-blinded efficacy study in accordance with European animal welfare requirements. Rats (Rattus norvegicus) were randomized based on pre-treatment flea counts. The efficacy of treatment was determined by comparison of the flea and tick counts of different treatment groups versus the placebo-treated control group. The experimental unit was the individual study animal. Method and route of administration: The compound was applied in a suitable solvent and carrier (more specifically, added to glycerol formal; in case of poorly soluble compounds, a solvent mixture with up to 25% by volume of N-methyl pyrrolidone may be used.) considering the individual body weight as an intraperitoneal injection.
Experimental infestation: On the day of treatment and weekly thereafter, 30 ticks (D. variabilis nymphs) were released onto the back of each rat, and 30 fleas (C. felis) were released onto the back of each rat 24 h later.
Tick and Flea counting: Rats were thoroughly examined and ticks and fleas were manually removed 48 h (±4 h) after tick infestation and 24 h after flea infestation. Live fleas and live attached engorged ticks were counted. In non-evident cases, engorgement status was evaluated by squeezing the tick on a filter paper to find traces of blood as sign for engorgement.

[3] = tested on: Rhipicephalus (Boophilus) microplus; assay: In vitro injection test with Rhipicephalus (Boophilus) microplus (BOOPMI Inj); conditions: 168 h, laid fertile eggs after 7 days, read-out: acaricidal activity; for pest or weed control at 0.0008 mg: dose 0.8 μg/animal injected; for pest or weed control at 32 ng: dose 0.032 μg/animal injected; for pest or weed control at 0.00016 mg: dose 0.16 μg/animal injected
Procedure, shortened: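 Five engorged adult females each get a 1 μl abdominal injection of compound dissolved and diluted in DMSO. Kept 7 days at 28° C./85% rel. hum.; percent activity rates egg laying and egg fertility (0% all fertile, 100% none laid or infertile).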

Ctenocephalides felis [4] = assay: In vitro contact test with fleas; conditions: read-out: insecticidal activity; for pest or weed control at 0.2 µg/cm2, 0.2 µg/cm2: dose 0.2 μg/cm^2, dead or moribund fleas after 48 h; for pest or weed control at 1 µg/cm2, 1 µg/cm2: dose 1 μg/cm^2, dead or moribund fleas after 48 h
Procedure, shortened: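 Activity is the percentage of fleas dead or moribund at 48 h, judged by immobility or uncoordinated movement after tapping. Tubes were coated by evaporating acetone solutions (900 ppm gives 5 μg/cm^2), then held 5-10 adult fleas of both sexes at room temperature and ambient humidity.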

Amblyomma americanum = assay: In vitro contact test with hard ticks (Amblyomma americanum nymphs); conditions: read-out: acaricidal activity; for pest or weed control at 0.2 µg/cm2, 0.2 µg/cm2: dose 0.2 μg/cm^2, 48 h; for pest or weed control at 1 µg/cm2, 1 µg/cm2: dose 1 μg/cm^2, 48 h
Procedure, shortened: (§1)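 Acaricidal activity = % ticks dead or moribund after 48 h contact with acetone-deposited compound on vial walls (e.g., 900 ppm solution → 5 μg/cm^2). Ambient conditions for R. sanguineus, 21° C./85% rel. hum. for other species; heat challenge at 45-50° C. separated climbers from moribund ticks.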

Dermacentor variabilis = assay: In vitro contact test with adult hard ticks (Dermacentor variabilis); conditions: read-out: acaricidal activity; for pest or weed control at 0.2 µg/cm2, 0.2 µg/cm2: dose 0.2 μg/cm^2, 48 h; for pest or weed control at 1 µg/cm2, 1 µg/cm2: dose 1 μg/cm^2, 48 h
Procedure, shortened: as §1

Ixodes ricinus = assay: In vitro contact test with adult hard ticks (Ixodes ricinus); conditions: read-out: acaricidal activity; for pest or weed control at 0.2 µg/cm2, 0.2 µg/cm2: dose 0.2 μg/cm^2, 48 h; for pest or weed control at 1 µg/cm2, 1 µg/cm2: dose 1 μg/cm^2, 48 h; for pest or weed control at 5 µg/cm2, 5 µg/cm2: dose 5 μg/cm^2, 48 h
Experimental: In Vitro Contact Tests with Adult Hard Ticks
In vitro contact tests with ticks were conducted with adult males and females of Rhipicephalus sanguineus, Ixodes ricinus, or Dermacentor variabilis, or nymphs of Amblyomma americanum.
For the coating of the test vials, the test substance was dissolved and diluted in acetone p.a. to the desired concentration. The solution was then homogeneously applied to the inner wall and base of a glass vial by turning and rocking on an orbital shaker until complete evaporation of the solvent. For example, with a 900 ppm solution of test substance, an area-based dose of 5 μg/cm^2 was achieved.
After the solvent was completely evaporated, 5-10 adult ticks were put in each coated test vial, which was then sealed with a perforated plastic lid and incubated in a horizontal position in the dark at room temperature and ambient humidity (Rhipicephalus sanguineus) or in a climate-controlled cabinet (Ixodes ricinus, Dermacentor variabilis, Amblyomma americanum [21° C., 85% rel. hum.]). Acaricidal activity against the respective tick species was determined after 48 h. For this, ticks were collected to the base of the test vial by gentle knocking, and test vials were then incubated on a hotplate at 45-50° C. for no longer than 5 min. Ticks which remained motionless on the base of the test vial or moved uncoordinated without deliberately climbing up to avoid the heat were considered dead or moribund, respectively.
A substance was judged to have good acaricidal activity against the respective tick species when at least 80% of ticks were found dead or moribund at a dose of the substance of g/cm^2. An acaricidal activity of 100% means all ticks were dead or moribund. An acaricidal activity of 0% means none of the ticks was found dead or moribund.

Rhipicephalus sanguineus = assay: In vitro contact test with adult hard ticks (Rhipicephalus sanguineus); conditions: read-out: acaricidal activity; for pest or weed control at 0.04 µg/cm2, 0.04 µg/cm2: dose 0.04 μg/cm^2, 48 h; for pest or weed control at 0.2 µg/cm2, 0.2 µg/cm2: dose 0.2 μg/cm^2, 48 h; for pest or weed control at 1 µg/cm2, 1 µg/cm2: dose 1 μg/cm^2, 48 h
Procedure, shortened: as §1

| Compound | pest or weed control at 4 ppm (Ctenocephalides felis [1]) [%] | pest or weed control at 100 ppm (Spodoptera litura) [%] | pest or weed control at 100 ppm (Plutella xylostella) [%] | pest or weed control at 0.0008 mg [3] [%] | pest or weed control at 0.16 ppm (Ctenocephalides felis [1]) [%] | pest or weed control at 0.8 ppm (Ctenocephalides felis [1]) [%] | pest or weed control at 0.2 µg/cm2, 0.2 µg/cm2 (Ctenocephalides felis [4]) [%] | pest or weed control at 1 µg/cm2, 1 µg/cm2 (Ctenocephalides felis [4]) [%] | pest or weed control at 0.2 µg/cm2, 0.2 µg/cm2 (Amblyomma americanum) [%] | pest or weed control at 1 µg/cm2, 1 µg/cm2 (Amblyomma americanum) [%] | pest or weed control at 0.2 µg/cm2, 0.2 µg/cm2 (Dermacentor variabilis) [%] | pest or weed control at 1 µg/cm2, 1 µg/cm2 (Dermacentor variabilis) [%] | pest or weed control at 1 µg/cm2, 1 µg/cm2 (Ixodes ricinus) [%] | pest or weed control at 5 µg/cm2, 5 µg/cm2 (Ixodes ricinus) [%] | pest or weed control at 1 µg/cm2, 1 µg/cm2 (Rhipicephalus sanguineus) [%] | pest or weed control at 32 ng [3] [%] | pest or weed control at 0.00016 mg [3] [%] | also measured |
| --- | --- | --- | --- | --- | --- | --- | --- | --- | --- | --- | --- | --- | --- | --- | --- | --- | --- | --- |
| COc1ccc(C(=O)N(C)c2cccc(C(=O)Nc3c(I)cc(C(F)(C(F)(F)F)C(F)(F)F)cc3C(F)(F)F)c2F)cc1OC [Compound 50] | 95 | ≥ 70 | ≥ 70 |  |  |  |  |  |  |  |  |  |  |  |  |  |  |  |
| Cc1cc(C2=NOC(c3cc(Cl)cc(Cl)c3)(C(F)(F)F)C2)ccc1C(=O)NCC(=O)NCC(F)(F)F (stereo not shown) [Fluralaner, fluralaner, reference compound] |  |  |  |  |  |  |  |  |  |  |  |  |  |  |  |  |  | Geometric mean percent reduction in live flea (Ctenocephalides felis) counts compared to untreated control rats (Ctenocephalides felis [2]; SD 2): 100%; Geometric mean percent reduction in live flea (Ctenocephalides felis) counts compared to untreated control rats (Ctenocephalides felis [2]; SD 9): 100%; Geometric mean percent reduction in live flea (Ctenocephalides felis) counts compared to untreated control rats (Ctenocephalides felis [2]; SD 16): 51%; Geometric mean percent reduction in live flea (Ctenocephalides felis) counts compared to untreated control rats (Ctenocephalides felis [2]; SD 23): 7% |
| O=C(Nc1cccc(C(=O)Nc2c(I)cc(C(F)(C(F)(F)F)C(F)(F)F)cc2C(F)(F)F)c1F)c1cnc(C(F)(F)F)nc1 [Compound 114] | 95 | ≥ 70 | ≥ 70 | 100 | 95 | 95 |  |  |  |  |  |  |  |  |  |  |  |  |
| CCN(C(=O)c1ccc(F)cc1)c1cccc(C(=O)Nc2c(I)cc(C(F)(C(F)(F)F)C(F)(F)F)cc2C(F)(F)F)c1F [Compound 43] |  |  |  |  |  |  |  |  |  |  |  |  |  |  |  |  |  | inhibition in vivo at 5 mg/kg (Ctenocephalides felis [2]; SD 2, read-out: Geometric mean percent reduction in live flea (Ctenocephalides felis) counts compared to untreated control rats): 100%; inhibition in vivo at 5 mg/kg (Ctenocephalides felis [2]; SD 9, read-out: Geometric mean percent reduction in live flea (Ctenocephalides felis) counts compared to untreated control rats): 99%; inhibition in vivo at 5 mg/kg (Ctenocephalides felis [2]; SD 16, read-out: Geometric mean percent reduction in live flea (Ctenocephalides felis) counts compared to untreated control rats): 90%; inhibition in vivo at 5 mg/kg (Ctenocephalides felis [2]; SD 23, read-out: Geometric mean percent reduction in live flea (Ctenocephalides felis) counts compared to untreated control rats): 91%; inhibition in vivo at 5 mg/kg (Ctenocephalides felis [2]; SD 30, read-out: Geometric mean percent reduction in live flea (Ctenocephalides felis) counts compared to untreated control rats): 13% |
| O=C(Nc1cccc(C(=O)Nc2c(I)cc(C(F)(C(F)(F)F)C(F)(F)F)cc2C(F)(F)F)c1F)c1ccc(C(F)(F)F)nc1C(F)(F)F [Compound 112] | 95 | ≥ 70 | ≥ 70 | 100 | 95 | 95 |  |  |  |  |  |  |  |  |  |  |  |  |
| O=C(Nc1cccc(C(=O)Nc2c(I)cc(C(F)(C(F)(F)F)C(F)(F)C(F)(F)F)cc2C(F)(F)F)c1F)c1ccc(F)cc1 (stereo not shown) [Compound 35] | 95 |  |  | 100 | 95 | 95 | 95 | 95 | 90 | 90 | 90 | 90 | 90 | 90 | 90 | 100 | 100 | pest or weed control at 0.04 µg/cm2, 0.04 µg/cm2 (Amblyomma americanum; dose 0.04 μg/cm^2, 48 h): 90%; pest or weed control at 0.2 µg/cm2, 0.2 µg/cm2 (Ixodes ricinus): 90%; pest or weed control at 0.04 µg/cm2, 0.04 µg/cm2 (Rhipicephalus sanguineus): 90%; pest or weed control at 0.2 µg/cm2, 0.2 µg/cm2 (Rhipicephalus sanguineus): 90%; pest or weed control at 6.4 ng ([3]; dose 0.0064 μg/animal injected): 100%; pest or weed control at 0.032 ppm (Ctenocephalides felis [1]): 95% |
| CN(C(=O)c1ccc(F)cc1)c1cccc(C(=O)Nc2c(Br)cc(C(F)(C(F)(F)F)C(F)(F)F)cc2C(F)(F)F)c1F [Compound 26] | 95 |  |  | 100 |  | 95 | 95 | 95 | 90 | 90 | 90 | 90 | 90 | 90 | 90 | 100 | 100 | pest or weed control at 0.04 µg/cm2, 0.04 µg/cm2 (Ctenocephalides felis [4]; dose 0.04 μg/cm^2, dead or moribund fleas after 48 h): 95% |
| N#Cc1ccc(C(=O)Nc2cccc(C(=O)Nc3c(Br)cc(C(F)(C(F)(F)F)C(F)(F)F)cc3OC(F)(F)F)c2F)cc1 [Compound 13] | 95 |  |  | 100 | 95 | 95 | 95 | 95 | 90 | 90 | 90 | 90 | 90 | 90 | 90 | 100 | 100 | pest or weed control at 0.2 µg/cm2, 0.2 µg/cm2 (Ixodes ricinus): 90%; pest or weed control at 0.04 µg/cm2, 0.04 µg/cm2 (Rhipicephalus sanguineus): 90%; pest or weed control at 0.2 µg/cm2, 0.2 µg/cm2 (Rhipicephalus sanguineus): 90%; pest or weed control at 0.032 ppm (Ctenocephalides felis [1]): 95% |
